Data from patent publication US9121847B2, “Three-dimensional microfluidic platforms and methods of use thereof” (Massachussetts Institute of Technology, priority 2008, dated 2015).
Read-outs that look alike come from different tables or passages of the source.

How the values were obtained:
[1] = test system: human dermal microvascular endothelial cells (HMVEC); conditions: for relative normalized length and area change of cell migration: collagen gel polymerized at pH 7.4
Experimental: Endothelial cell culture. The cell suspension media was prepared with 2×10^6 cells/mL and filled into the cell culturing channel. After filling, the device was kept in the incubator for 30 minutes for cells to settle down and attach on the substrate before the medium was replaced. The cell attachments duration ranges from 30 minutes to several hours depending on the cell types. Human dermal microvascular endothelial cells (HMVEC) were commercially obtained (Lonza, N.J.) and expanded with endothelial growth media (EGM-2MV; Lonza, N.J.) on regular culture flasks pre-coated with collagen I (BD Biosciences, MA) for no more than 9 passages. Recombinant human vascular endothelial growth factor (VEGF; R&D Systems, MN) was mixed with cell culturing media with working concentration of 20 ng/mL and then was filled into the condition channel to generate gradient.
Measuring and quantification of cell migration. The device was kept in incubator containing 5% CO2 at 37° C. and cell migration was monitored by phase contrast microscopy (Nikon Instruments, NY) daily. The length and area of migrated cell outlines were measured by ImageJ. Immunofluorescence staining was performed to visualize the final cell migration result. Actin filaments and nuclei were stained with Rhodamine-Phalloidin (Sigma-Aldrich, Switzerland) and DAPI (Sigma-Aldrich, Switzerland), respectively.
Quantified chemotaxis experiments with endothelial cells. […] Vascular Endothelial Growth Factor-A (VEGF), a known stimulant of endothelial cell migration^23,24 was applied to the condition channel, generating a VEGF gradient in gel scaffold between the cell channel and the condition channel. The control channel was filled with normal cell culture medium without VEGF as a control. […] Length and area changes of migrating cells into collagen scaffolds of different stiffness (pH 7.4 and pH 11) were observed and quantified over several days.
Cells were fixed after 6 days of culture with 5 days of VEGF gradient application, and stained by Rhodamine-Phalloidin and DAPI. White dotted lines indicate the outlines of gel scaffold and small rectangles in scaffold indicate the PDMS posts of 150 μm×150 μm. “0.2%” indicates a collagen concentration of 2.0 mg/mL. […] FIG. 20D is a graph of normalized relative length of migrated cells in the collagen gel scaffold polymerized at pH 7.4 with concentration of 2.0 mg/mL. ‘No VEGF’ serves as the negative control without VEGF gradient. VEGF was applied daily for various durations. ‘VEGF at day 1’ means that VEGF was first applied 1 day after cell seeding. VEGF at day 2 or 3 means VEGF was first applied 2 or 3 days after cell seeding. The relative length is calculated as the difference from the control side. FIG. 20E is a graph of normalized relative area of migrated cells in the collagen gel scaffold polymerized at pH 7.4 with concentration of 2.0 mg/mL. FIGS. 20F and G are graphs of normalized relative length and area of migrated cells in the collagen gel scaffold polymerized at pH 11.0 with concentration of 2.0 mg/mL. All graphs made by average of the value in 4 devices with n=8 (total 8 scaffolds) under one condition.
To evaluate the sensitivity of this assay, VEGF was applied to the condition channel 1, 2 or 3 days after cell seeding. […] For the normalized values, the measured data were normalized to their own baseline data at the initial time point (Eq. 1). Relative normalized values were assessed as the difference between the normalized data of the condition side and the control side. […]

[2] = Dextran diffusion from condition channel to cell channel through collagen gel scaffold, three-channel device; type: physicochemical; conditions: 40 kDa dextran; for time of initial diffusion from condition channel through scaffold to cell channel: 0.5 μg/mL, collagen 2.0 mg/mL polymerized at pH 7.4
Description: Media exchange, dextran diffusion experiments and flow application. The filled media should be kept as droplets on inlets and outlets to avoid evaporation of the media. Aspirating an existing droplet and adding a new droplet of media on one side can generate micro flow due to capillary force to replace the old media in the channel with minimal shear stress on the cells. To apply mechanical angiogenic factors such as fluid shear stress or pressure gradient, fluidic circuits consisting of tubes and pumps can be connected to inlets and outlets of the device to apply precisely controlled flow. […] The diffusion profile was taken by fluorescence microscope (Nikon Instruments, NY) and analyzed by Matlab to get the intensity graph from images. […] Stable and linear gradient was achieved and maintained for several hours. […] The collagen scaffold used had 2.0 mg/mL concentration polymerized at pH 7.4.
Equilibrium was established after several hours and a linear concentration profile was maintained for 10 hours.

U87MG cells = test: Microfluidic chemotaxis evaluation of U87MG cells with hEGF gradient; type: cell-based, human; conditions: 20 or 200 ng/mL hEGF in condition channel; collagen scaffold
[3] = collagen scaffolds polymerized at pH 11.0 (stiff gels)

VEGF
relative normalized length and area change of cell migration ([1]; VEGF added 3 days after cell seeding): did not | relative normalized length and area change of cell migration ([1]; VEGF applied 1 day after cell seeding): induced cell migration | relative normalized length and area change of cell migration ([1]; VEGF applied 2 days after cell seeding): induced cell migration | relative normalized values of the area change [1, 3]: too small to be detected | relative normalized values of the length change [1, 3]: significant differences of cell migration

dextran
time of initial diffusion from condition channel through scaffold to cell channel [2]: 30 min | time of initial diffusion from condition channel through scaffold to cell channel ([2]; listed as Dextran): ≤ 30 min | duration for which linear concentration profile was maintained ([2]; collagen gel scaffold, after equilibrium): 10 h

hEGF: human epidermal growth factor (NSDSECPLSHDGYCLHDGVCMYIEALDKYACNCVVGYIGERCQYRDLKWWELR; UniProt P01133 971-1023, looked up)
migration speed of U87MG cells, condition side vs control side (U87MG cells): higher than that of the control side
